Results: ChEMBL document CHEMBL5370598, “[3H]UR-JG102-A Radiolabeled Cyclic Peptide with High Affinity and Excellent Selectivity for the Neuropeptide Y Y4 Receptor” (J Med Chem, 2023)
Starred links: 1 amine or outer side, 2 acyl side, 3 side chain; linkers in the order of their positions; H or OH if unused. Positions of bridges follow the written chain, without caps; N, C: chain ends. Non-standard residues stand in square brackets, D forms with d. Residues, ends and D or L forms follow the SMILES beside them. Arg(Nω-CO) = N/C(=N\C(=O)[*:3])NCCC[C@H](N[*:1])C(=O)[*:2]; Ethylenediamine = C(CN[*:2])N[*:1]

How the values were obtained:
[1] = biological target: T1, Neuropeptide Y receptor type 2 (Homo sapiens, UniProt P49146); assay: Displacement of [3H]propionyl-pNPY from human Y2R expressed in CHO cells; assay type: cell-based
T1 sequence (P49146 whole entry): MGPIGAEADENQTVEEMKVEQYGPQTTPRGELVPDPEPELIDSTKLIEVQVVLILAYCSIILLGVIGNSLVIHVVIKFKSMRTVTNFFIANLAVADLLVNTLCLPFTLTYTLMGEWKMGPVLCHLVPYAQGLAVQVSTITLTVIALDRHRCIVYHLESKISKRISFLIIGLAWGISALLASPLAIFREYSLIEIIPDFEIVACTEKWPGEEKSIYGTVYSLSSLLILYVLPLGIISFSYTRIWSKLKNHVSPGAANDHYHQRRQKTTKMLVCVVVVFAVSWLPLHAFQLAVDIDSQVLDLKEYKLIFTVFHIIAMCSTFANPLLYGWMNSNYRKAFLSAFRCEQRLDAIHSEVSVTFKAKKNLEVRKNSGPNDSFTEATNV

[2] = biological target: T2, Neuropeptide Y receptor type 4 (Homo sapiens, UniProt P50391); assay: Agonist activity at human Y4R expressed in HEK293T cells by miniGsi assay; assay type: functional, cell-based
T2 sequence (P50391 whole entry): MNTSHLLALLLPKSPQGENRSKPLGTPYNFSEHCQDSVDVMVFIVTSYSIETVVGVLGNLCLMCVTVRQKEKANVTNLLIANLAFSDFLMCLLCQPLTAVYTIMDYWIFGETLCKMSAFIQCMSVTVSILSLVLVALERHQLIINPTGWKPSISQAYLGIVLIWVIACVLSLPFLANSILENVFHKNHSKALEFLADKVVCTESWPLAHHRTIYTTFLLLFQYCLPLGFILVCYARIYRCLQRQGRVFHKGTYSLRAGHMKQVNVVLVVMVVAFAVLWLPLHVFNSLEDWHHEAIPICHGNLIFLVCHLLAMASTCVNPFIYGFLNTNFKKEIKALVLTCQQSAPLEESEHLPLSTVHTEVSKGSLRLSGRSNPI

[3] = biological target: T3, Neuropeptide Y receptor type 1 (Homo sapiens, UniProt P25929); assay: Displacement of [3H]UR-MK299 from human Y1R expressed in SK-N-MC cells; assay type: cell-based
T3 sequence (P25929 whole entry): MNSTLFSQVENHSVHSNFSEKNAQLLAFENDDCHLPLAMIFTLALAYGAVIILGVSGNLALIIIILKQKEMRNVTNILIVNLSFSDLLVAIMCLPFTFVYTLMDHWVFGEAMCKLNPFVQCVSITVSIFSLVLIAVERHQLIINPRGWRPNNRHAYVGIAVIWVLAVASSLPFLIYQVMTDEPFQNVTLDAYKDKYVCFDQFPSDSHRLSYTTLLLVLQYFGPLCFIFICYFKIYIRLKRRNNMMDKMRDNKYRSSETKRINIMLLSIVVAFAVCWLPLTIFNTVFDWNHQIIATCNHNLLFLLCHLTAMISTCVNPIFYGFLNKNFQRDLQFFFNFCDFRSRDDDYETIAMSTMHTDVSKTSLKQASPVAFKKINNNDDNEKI

[4] = biological target: T2, Neuropeptide Y receptor type 4; assay: Displacement of [3H]UR-KK200 from human Y4R expressed in CHO cells co-expressing Gqi5-mtAEQ; assay type: cell-based
[5] = biological target: T2, Neuropeptide Y receptor type 4; assay: Agonist activity at human Y4R expressed in CHO cells co-expressing Gqi5-mtAEQ by calcium2+ aequorin assay relative to control; assay type: functional, cell-based; conditions: filed as agonist
[6] = biological target: T2, Neuropeptide Y receptor type 4; assay: Agonist activity at human Y4R expressed in CHO cells co-expressing Gqi5-mtAEQ by calcium2+ aequorin assay; assay type: functional, cell-based
[7] = biological target: T2, Neuropeptide Y receptor type 4; assay: Agonist activity at human Y4R expressed in HEK293T cells by miniGsi assay relative to control; assay type: functional, cell-based; conditions: filed as agonist
[8] = biological target: T4, Neuropeptide Y receptor type 5 (Homo sapiens, UniProt Q15761); assay: Displacement of [3H]propionyl-pNPY from human Y5R expressed in HEC-1B cells; assay type: cell-based, HEC-1B cell line
T4 sequence (Q15761 whole entry): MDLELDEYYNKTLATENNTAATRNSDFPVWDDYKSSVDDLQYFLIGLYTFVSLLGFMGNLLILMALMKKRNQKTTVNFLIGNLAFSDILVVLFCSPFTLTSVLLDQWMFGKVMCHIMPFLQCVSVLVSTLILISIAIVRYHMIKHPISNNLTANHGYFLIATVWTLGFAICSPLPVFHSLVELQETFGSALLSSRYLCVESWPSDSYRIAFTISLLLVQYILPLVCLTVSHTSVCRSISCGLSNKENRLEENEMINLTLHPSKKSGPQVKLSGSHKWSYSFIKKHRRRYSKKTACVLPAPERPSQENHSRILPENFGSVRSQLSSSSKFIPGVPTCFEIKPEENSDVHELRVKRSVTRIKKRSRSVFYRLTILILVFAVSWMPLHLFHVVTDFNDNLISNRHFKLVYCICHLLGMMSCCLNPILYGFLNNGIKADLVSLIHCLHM

[9] = biological target: T2, Neuropeptide Y receptor type 4; assay: Agonist activity at human Y4R expressed in HEK293T cells incubated for 60 mins by cAMP CAMYEN assay; assay type: functional, cell-based
[10] = biological target: T2, Neuropeptide Y receptor type 4; assay: Agonist activity at human Y4R expressed in HEK293T cells incubated for 60 mins by cAMP CAMYEN assay relative to control; assay type: functional, cell-based; conditions: filed as agonist

| SMILES | Ki ([1]; cho, read-out: Ki) [nM] | Ki ([1]; read-out: pKi (converted)) [nM] | EC50 [2] [nM] | Ki ([3]; read-out: pKi (converted)) [nM] | Ki ([3]; sk-n-mc, read-out: Ki) [nM] | Ki ([4]; read-out: Ki) [nM] | Ki ([4]; read-out: pKi (converted)) [nM] | Emax [5] [%] | EC50 ([6]; read-out: EC50) [nM] | Emax [7] [%] | Ki ([8]; hec-1b cell line, read-out: Ki) [nM] | Ki ([8]; read-out: pKi (converted)) [nM] | EC50 ([9]; read-out: EC50) [nM] | Emax [10] [%] | EC50 ([6]; read-out: pEC50 (converted)) [nM] | EC50 ([9]; read-out: pEC50 (converted)) [nM] | Ki ([3]; read-out: Ki) [nM] | Ki ([1]; read-out: Ki) [nM] |
| --- | --- | --- | --- | --- | --- | --- | --- | --- | --- | --- | --- | --- | --- | --- | --- | --- | --- | --- |
| CC(C)C[C@H](NC(=O)[C@@H]1CCCN/C(N)=N/C(=O)NCCCCNC(=O)[C@@H](N)CC(=O)N[C@@H](CCCNC(=N)N)C(=O)N[C@@H](Cc2ccc(O)cc2)C(=O)N1)C(=O)N[C@@H](CCCNC(=N)N)C(=O)N[C@@H](Cc1ccc(O)cc1)C(N)=O | > 10000 | > 10000 | 1.1 | > 1000 | > 1000 | 0.026 | 0.0245 | 85 | 5 | 59 | > 1000 | > 1000 | – | – | – | – | – | – |
| CC(C)C[C@H](NC(=O)[C@@H]1CCCN/C(N)=N/C(=O)NCCCCNC(=O)[C@H](N)CC(=O)N[C@@H](CCCNC(=N)N)C(=O)N[C@@H](Cc2ccc(O)cc2)C(=O)N1)C(=O)N[C@@H](CCCNC(=N)N)C(=O)N[C@@H](Cc1ccc(O)cc1)C(N)=O | > 10000 | > 10000 | 1.1 | > 1000 | > 1000 | 0.041 | – | 79 | 8 | 56 | > 1000 | > 1000 | – | – | – | – | – | – |
| CCC(=O)N[C@H]1CC(=O)N[C@@H](CCCNC(=N)N)C(=O)N[C@@H](Cc2ccc(O)cc2)C(=O)N[C@H](C(=O)N[C@@H](CC(C)C)C(=O)N[C@@H](CCCNC(=N)N)C(=O)N[C@@H](Cc2ccc(O)cc2)C(N)=O)CCCN/C(N)=N/C(=O)NCCCCNC1=O | > 10000 | > 10000 | 3.8 | > 1000 | > 1000 | 0.15 | – | 80 | 24 | 58 | > 1000 | > 1000 | 0.13 | 82 | 22.4 | – | – | – |
| CCC(=O)N[C@H]1CC(=O)NCCCCNC(=O)/N=C(\N)NCCC[C@@H](C(=O)N[C@@H](CC(C)C)C(=O)N[C@@H](CCCNC(=N)N)C(=O)N[C@@H](Cc2ccc(O)cc2)C(N)=O)NC(=O)[C@H](Cc2ccc(O)cc2)NC(=O)[C@H](CCCNC(=N)N)NC1=O | > 10000 | > 10000 | 8.1 | > 1000 | > 1000 | 0.11 | – | 64 | 23 | 46 | > 1000 | > 1000 | 0.2 | 83 | 20 | – | – | – |
| CCC(=O)N[C@@H]1CC(=O)N[C@@H](CCCNC(=N)N)C(=O)N[C@@H](Cc2ccc(O)cc2)C(=O)N[C@H](C(=O)N[C@@H](CC(C)C)C(=O)N[C@@H](CCCNC(=N)N)C(=O)N[C@@H](Cc2ccc(O)cc2)C(N)=O)CCCN/C(N)=N/C(=O)NCCCCNC1=O | > 10000 | > 10000 | 1.6 | > 1000 | > 1000 | 0.066 | – | 74 | 9 | 51 | > 1000 | > 1000 | 0.063 | 85 | 6.31 | 0.0501 | – | – |
| CC(C)C[C@H](NC(=O)[C@@H]1CCCN/C(N)=N/C(=O)NCCCCNC(=O)C[C@@H](N)C(=O)N[C@@H](CCCNC(=N)N)C(=O)N[C@@H](Cc2ccc(O)cc2)C(=O)N1)C(=O)N[C@@H](CCCNC(=N)N)C(=O)N[C@@H](Cc1ccc(O)cc1)C(N)=O | > 10000 | > 10000 | 0.89 | > 1000 | > 1000 | 0.031 | – | 63 | 11 | 68 | > 1000 | > 1000 | – | – | – | – | – | – |
| CC(C)C[C@H](NC(=O)[C@@H]1CCCN/C(N)=N/C(=O)NCCCCNC(=O)C[C@H](N)C(=O)N[C@@H](CCCNC(=N)N)C(=O)N[C@@H](Cc2ccc(O)cc2)C(=O)N1)C(=O)N[C@@H](CCCNC(=N)N)C(=O)N[C@@H](Cc1ccc(O)cc1)C(N)=O | > 10000 | > 10000 | 4.7 | > 3160 | – | 0.33 | – | 70 | 19 | 55 | > 1000 | > 1000 | – | – | 13.2 | – | > 3000 | – |
| CC(C)C[C@H](NC(=O)[C@@H]1CCCN/C(N)=N/C(=O)NCCNC(=O)CC[C@H](N)C(=O)N[C@@H](CCCNC(=N)N)C(=O)N[C@@H](Cc2ccc(O)cc2)C(=O)N1)C(=O)N[C@@H](CCCNC(=N)N)C(=O)N[C@@H](Cc1ccc(O)cc1)C(N)=O (H-ERY[Arg(Nω-CO)]LRY-NH2; linker 1-4 via Ethylenediamine) | > 10000 | > 10000 | 10 | > 1000 | > 1000 | 0.17 | – | 65 | 60 | 67 | > 1000 | > 1000 | – | – | – | – | – | – |
| CCC(=O)N[C@@H]1CC(=O)NCCCCNC(=O)/N=C(\N)NCCC[C@@H](C(=O)N[C@@H](CC(C)C)C(=O)N[C@@H](CCCNC(=N)N)C(=O)N[C@@H](Cc2ccc(O)cc2)C(N)=O)NC(=O)[C@H](Cc2ccc(O)cc2)NC(=O)[C@H](CCCNC(=N)N)NC1=O | – | > 3160 | 2.6 | > 1000 | > 1000 | 0.12 | 0.11 | 70 | 22 | 64 | > 1000 | > 1000 | 0.11 | 81 | – | – | – | > 3000 |
| CC(C)C[C@H](NC(=O)[C@@H]1CCCN/C(N)=N/C(=O)NCCCCNC(=O)[C@H](NC(=O)CCCN)CC(=O)N[C@@H](CCCNC(=N)N)C(=O)N[C@@H](Cc2ccc(O)cc2)C(=O)N1)C(=O)N[C@@H](CCCNC(=N)N)C(=O)N[C@@H](Cc1ccc(O)cc1)C(N)=O | – | 912 | 2.5 | > 1000 | > 1000 | 0.093 | 0.0912 | 69 | 18 | 62 | > 1000 | > 1000 | – | – | – | – | – | > 948 |
